Assay results as given in PubChem BioAssay AID330 (DTP/NCI, 2004).
“And” between values parts separate entries of the source, which are not always exact repeats. Equal values may be shown once. Toxic doses and inconclusive results are not listed.

Test system: P388 leukemia ip, CD2F1 mice, survival T/C
Assay: NCI In Vivo Anticancer Drug Screen. Data for tumor model P388 Leukemia (intraperitoneal) in CD2F1 (CDF1) mice
Details: endpoint: median survival time, higher = longer survival
Procedure, shortened: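 Mice carrying the transplanted tumor received test compound or vehicle. Survival was recorded in each group, and the value is the treated-group measurement divided by that of the vehicle-treated control group.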

[1] = dose: 25.0 mg/kg/injection, schedule: Q01DX009 (ip), vehicle: saline
[2] = dose: 200.0 mg/kg/injection, schedule: Q01DX009 (ip), vehicle: saline
[3] = dose: 60.0 mg/kg/injection, schedule: Q01DX005 (ip), vehicle: Klucel (hydroxypropylcellulose) (HPC)
[4] = dose: 50.0 mg/kg/injection, schedule: Q01DX005 (ip), vehicle: Klucel (hydroxypropylcellulose) (HPC)
[5] = dose: 100.0 mg/kg/injection, schedule: Q01DX005 (ip), vehicle: Klucel (hydroxypropylcellulose) (HPC)
[6] = dose: 200.0 mg/kg/injection, schedule: Q01DX005 (ip), vehicle: Klucel (hydroxypropylcellulose) (HPC)
[7] = dose: 60.0 mg/kg/injection, schedule: Q01DX005 (ip), vehicle: saline with Tween-80
[8] = dose: 120.0 mg/kg/injection, schedule: Q01DX005 (ip), vehicle: saline with Tween-80
[9] = dose: 240.0 mg/kg/injection, schedule: Q01DX005 (ip), vehicle: saline with Tween-80

CCOC(=O)Nc1cc2c(c(N)n1)N=C(c1ccccc1)CN2
T/C (dose: 2.6 mg/kg/injection, schedule: Q04DX003 (ip), vehicle: saline with Tween-80): 119 % of control
T/C (dose: 3.0 mg/kg/injection, schedule: Q01DX005 (ip), vehicle: saline with Tween-80): 117 % of control and 123 % of control
T/C (dose: 3.0 mg/kg/injection, schedule: Q01DX009 (ip), vehicle: saline with Tween-80): 156 % of control
T/C (dose: 6.0 mg/kg/injection, schedule: Q01DX009 (ip), vehicle: saline with Tween-80): 105 % of control
T/C (dose: 6.0 mg/kg/injection, schedule: Q04DX003 (ip), vehicle: saline with Tween-80): 151 % of control
T/C (dose: 6.25 mg/kg/injection, schedule: Q01DX001 (ip), vehicle: saline with Tween-80): 118 % of control
T/C (dose: 9.0 mg/kg/injection, schedule: Q04DX003 (ip), vehicle: saline with Tween-80): 173 % of control
T/C (dose: 12.0 mg/kg/injection, schedule: Q01DX001 (ip), vehicle: saline with Tween-80): 151 % of control and 157 % of control
T/C (dose: 12.5 mg/kg/injection, schedule: Q01DX001 (ip), vehicle: saline with Tween-80): 150 % of control
T/C (dose: 18.0 mg/kg/injection, schedule: Q01DX001 (ip), vehicle: saline with Tween-80): 168 % of control

CN(C)CCCNC(=O)c1n[nH]c(=S)[nH]c1=O
T/C (dose: 50.0 mg/kg/injection, schedule: Q01DX005 (ip), vehicle: saline with Tween-80): 101 % of control
T/C (dose: 100.0 mg/kg/injection, schedule: Q01DX005 (ip), vehicle: saline with Tween-80): 100 % of control
T/C (dose: 200.0 mg/kg/injection, schedule: Q01DX005 (ip), vehicle: saline with Tween-80): 95 % of control

Cc1ccccc1N(CC1CO1)CC1CO1 (configuration not stated)
T/C [1]: 119 % of control
T/C (dose: 100.0 mg/kg/injection, schedule: Q01DX009 (ip), vehicle: acetone): 156 % of control
T/C [2]: 165 % of control

CCSC(C/C=C/c1ccccc1)S(=O)CC (configuration not stated)
T/C (dose: 100.0 mg/kg/injection, schedule: Q04DX003 (ip), vehicle: saline): 99 % of control
T/C (dose: 200.0 mg/kg/injection, schedule: Q04DX003 (ip), vehicle: saline): 107 % of control
T/C (dose: 400.0 mg/kg/injection, schedule: Q04DX003 (ip), vehicle: saline): 105 % of control

N#Cc1ccc(OC(=O)Nc2ccc(Br)cc2)cc1
T/C [3]: 115 % of control
T/C (dose: 120.0 mg/kg/injection, schedule: Q01DX005 (ip), vehicle: Klucel (hydroxypropylcellulose) (HPC)): 114 % of control
T/C (dose: 240.0 mg/kg/injection, schedule: Q01DX005 (ip), vehicle: Klucel (hydroxypropylcellulose) (HPC)): 108 % of control

COc1c(N)c2c(c([N+](=O)[O-])c1OC)C(=O)OC2
T/C [4]: 103 % of control
T/C [5]: 93 % of control
T/C [6]: 97 % of control

CC1=NN(c2ccccc2)C(=O)C1N=Nc1cc([N+](=O)[O-])cc(S(=O)(=O)O)c1O.CC1=NN(c2ccccc2)C(=O)C1N=Nc1cc([N+](=O)[O-])cc(S(=O)(=O)O)c1O.[Cr] (configuration not stated)
T/C [1]: 106 % of control and 108 % of control
T/C (dose: 50.0 mg/kg/injection, schedule: Q01DX009 (ip), vehicle: saline): 111 % of control and 112 % of control and 115 % of control
T/C (dose: 100.0 mg/kg/injection, schedule: Q01DX009 (ip), vehicle: saline): 119 % of control and 124 % of control (2×)
T/C [2]: 101 % of control and 103 % of control and 115 % of control

COc1cc(Br)c(C(C)(C)C#N)cc1OC
T/C [4]: 101 % of control
T/C [5]: 101 % of control
T/C [6]: 100 % of control

O=C1C[C@]2(CC3CO3)C[C@@H](C=CC23OCCO3)O1 (some centres not stated)
T/C (dose: 1.5 mg/kg/injection, schedule: Q01DX005 (ip), vehicle: acid diluted with saline): 99 % of control
T/C (dose: 3.0 mg/kg/injection, schedule: Q01DX005 (ip), vehicle: acid diluted with saline): 102 % of control
T/C (dose: 6.0 mg/kg/injection, schedule: Q01DX005 (ip), vehicle: acid diluted with saline): 102 % of control
T/C (dose: 12.0 mg/kg/injection, schedule: Q01DX005 (ip), vehicle: acid diluted with saline): 107 % of control

CCOC(=O)c1[nH]c(=S)sc1N
T/C [7]: 99 % of control
T/C [8]: 92 % of control
T/C [9]: 90 % of control

CCN1CCC(OC(=O)c2ccccc2)(c2nccc3ccccc23)CC1
T/C (dose: 50.0 mg/kg/injection, schedule: Q01DX009 (ip), vehicle: saline with Tween-80): 112 % of control

CCOC(=O)NNC(=O)Nc1ccc(O[Si](C)(C)C)cc1
T/C [7]: 109 % of control
T/C [8]: 102 % of control
T/C [9]: 100 % of control

CC(C)(Cc1nc2ccccc2[nH]1)Cc1nc2ccccc2[nH]1
T/C (dose: 7.5 mg/kg/injection, schedule: Q01DX005 (ip), vehicle: Klucel (hydroxypropylcellulose) (HPC)): 99 % of control
T/C (dose: 15.0 mg/kg/injection, schedule: Q01DX005 (ip), vehicle: Klucel (hydroxypropylcellulose) (HPC)): 94 % of control
T/C (dose: 30.0 mg/kg/injection, schedule: Q01DX005 (ip), vehicle: Klucel (hydroxypropylcellulose) (HPC)): 91 % of control
T/C [3]: 90 % of control
